Legend:
Conditions in all cases: 72 h
Caco-2 [1] = test: cell viability relative to DMSO; higher = less toxic
Calu-3 [2] = test: as above
HepG2 [3] = test: as above
U2OS [4] = test: as above
Vero E6 [5] = test: as above
Caco-2 [6] = test: relative viability EC50 (midpoint between 100% and the lowest measured viability); higher = less toxic
HepG2 [7] = test: as above
U2OS [8] = test: as above
Vero E6 [9] = test: as above
Caco-2 [10] = test: drug sensitivity score (DSS) for viability; higher = more toxic; extreme values may be limits of the assay
Calu-3 [11] = test: as above
HepG2 [12] = test: as above
U2OS [13] = test: as above
Vero E6 [14] = test: as above
Calu-3 [15] = test: relative viability EC50 (midpoint between 100% and the lowest measured viability); higher = less toxic

Row | Compound | cell viability (Caco-2 [1]; 1 nM) [%] | cell viability (Caco-2 [1]; 10 nM) [%] | cell viability (Caco-2 [1]; 100 nM) [%] | cell viability (Caco-2 [1]; 1000 nM) [%] | cell viability (Caco-2 [1]; 10000 nM) [%] | cell viability (Calu-3 [2]; 1 nM) [%] | cell viability (Calu-3 [2]; 10 nM) [%] | cell viability (Calu-3 [2]; 100 nM) [%] | cell viability (Calu-3 [2]; 1000 nM) [%] | cell viability (Calu-3 [2]; 10000 nM) [%] | cell viability (HepG2 [3]; 1 nM) [%] | cell viability (HepG2 [3]; 10 nM) [%] | cell viability (HepG2 [3]; 100 nM) [%] | cell viability (HepG2 [3]; 1000 nM) [%] | cell viability (HepG2 [3]; 10000 nM) [%] | cell viability (U2OS [4]; 1 nM) [%] | cell viability (U2OS [4]; 10 nM) [%] | cell viability (U2OS [4]; 100 nM) [%] | cell viability (U2OS [4]; 1000 nM) [%] | cell viability (U2OS [4]; 10000 nM) [%] | cell viability (Vero E6 [5]; 1 nM) [%] | cell viability (Vero E6 [5]; 10 nM) [%] | cell viability (Vero E6 [5]; 100 nM) [%] | cell viability (Vero E6 [5]; 1000 nM) [%] | cell viability (Vero E6 [5]; 10000 nM) [%] | relative viability EC50 (Caco-2 [6]) [µM] | relative viability EC50 (HepG2 [7]) [µM] | relative viability EC50 (U2OS [8]) [µM] | relative viability EC50 (Vero E6 [9]) [µM] | drug sensitivity score (Caco-2 [10]) | drug sensitivity score (Calu-3 [11]) | drug sensitivity score (HepG2 [12]) | drug sensitivity score (U2OS [13]) | drug sensitivity score (Vero E6 [14]) | relative viability EC50 (Calu-3 [15]) [µM]
1 | COc1ccc2[nH]c3c(-c4cccc5ccccc45)nccc3c2c1 [SP-141] | 91.8 | 103 | 99.2 | 60 | 39.5 | 98.7 | 106 | 105 | 67.4 | 67.2 | 102 | 101 | 95.9 | 47.8 | 42.8 | 110 | 109 | 106 | 53.9 | 21.3 | 95.5 | 101 | 97.8 | 39.1 | 29.2 | 0.741 | 0.332 | 0.873 | 0.453 | 8.1 | 5.3 | 10.2 | 9.9 | 11.5 | 
2 | O=C1CN2Cc3c(ccc(Cl)c3Cl)N=C2N1 [anagrelide] | 101 | 97.8 | 97.6 | 99.8 | 96.9 |  |  |  |  |  | 101 | 102 | 104 | 101 | 96.7 |  |  |  |  |  | 106 | 107 | 103 | 102 | 99.3 | > 10 | > 10 |  | > 10 | 0 |  | 0 |  | 0 | 
3 | Cn1cnc([N+](=O)[O-])c1Sc1ncnc2[nH]cnc12 [azathioprine] | 110 | 86.8 | 93 | 92.7 | 92.9 | 94.8 | 93.6 | 93.1 | 94.4 | 98.7 | 95.2 | 89.7 | 93 | 75.1 | 20 | 104 | 97.9 | 96.2 | 71.9 | 78.9 | 94.2 | 96.6 | 94.8 | 96 | 82.7 | > 10 | 1.46 |  | > 10 | 0 | 0 | 7.7 | 5.2 | 0.7 | > 10
4 | COc1cc2ncnc(Nc3ccc(F)c(Cl)c3)c2cc1NC(=O)/C=C/CN1CCCCC1 [dacomitinib] | 95.3 | 89.6 | 90.6 | 69.3 | 71.2 | 83.5 | 73.7 | 40.8 | 32.1 | 17 | 104 | 97.8 | 91.3 | 97 | 37.8 | 94.3 | 97.3 | 94.5 | 94.7 | 43.6 | 99.6 | 92.7 | 59.5 | 48.2 | 39.5 |  | 2.79 | 2.39 | 0.0579 | 5.6 | 23.8 | 3.8 | 3.9 | 15.8 | 0.027

Source: the supplement of paper PMC13380429
